Laboratory results published in article PMC7608467 (Acta Pharmacologica Sinica, 2020).

Legend:
[1] = target: human relaxin/insulin-like family peptide receptor 4 (RXFP4) on CHO-K1 cells (human) (UniProt Q8TDU9)
human RXFP4 (hRXFP4) [2] = target: T1, human RXFP4 (hRXFP4) (Homo sapiens, UniProt Q8TDU9); assay: inhibition of forskolin-stimulated cAMP accumulation, TR-FRET; type: cell-based; conditions: agonist; 500 nM forskolin, 500 uM IBMX, 40 min, RT
mouse RXFP4 (mRXFP4) = target: T2, mouse RXFP4 (mRXFP4) (Mus musculus, UniProt Q7TQP4); assay: as above; type: cell-based; conditions: agonist; 500 nM forskolin, 500 uM IBMX, 40 min, RT
T2 sequence (Q7TQP4 1-414): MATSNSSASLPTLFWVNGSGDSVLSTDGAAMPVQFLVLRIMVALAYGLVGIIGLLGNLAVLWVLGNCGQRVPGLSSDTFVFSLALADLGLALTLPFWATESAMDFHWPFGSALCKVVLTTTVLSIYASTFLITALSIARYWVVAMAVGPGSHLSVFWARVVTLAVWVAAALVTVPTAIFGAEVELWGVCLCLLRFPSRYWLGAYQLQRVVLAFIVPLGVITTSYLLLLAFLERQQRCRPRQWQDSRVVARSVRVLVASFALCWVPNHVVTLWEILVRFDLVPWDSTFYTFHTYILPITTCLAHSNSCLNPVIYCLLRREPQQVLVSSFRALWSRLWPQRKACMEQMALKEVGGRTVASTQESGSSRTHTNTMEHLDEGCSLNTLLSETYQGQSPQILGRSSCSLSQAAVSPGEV

human RXFP4 (hRXFP4) [3] = target: T1, human RXFP4 (hRXFP4); assay: Eu-mINSL5 competition binding, time-resolved fluorescence, CHO-RXFP4 cells; type: cell-based; conditions: n = 3; one-site fit; competitive with Eu-labelled INSL5

human relaxin/insulin-like family peptide receptor 4 (RXFP4) on CHO-K1 cells (human), sequence (Q8TDU9 whole entry): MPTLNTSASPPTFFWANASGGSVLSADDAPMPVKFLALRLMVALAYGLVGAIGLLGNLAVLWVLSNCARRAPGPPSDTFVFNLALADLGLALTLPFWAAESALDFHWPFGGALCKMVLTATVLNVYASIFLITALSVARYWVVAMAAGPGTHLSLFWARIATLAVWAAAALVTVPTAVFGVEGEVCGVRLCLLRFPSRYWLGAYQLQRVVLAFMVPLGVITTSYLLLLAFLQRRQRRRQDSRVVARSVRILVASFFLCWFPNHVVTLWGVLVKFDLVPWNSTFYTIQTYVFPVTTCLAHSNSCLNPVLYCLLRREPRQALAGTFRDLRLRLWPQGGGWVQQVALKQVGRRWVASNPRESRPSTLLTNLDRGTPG
T1 sequence (Q8TDU9 whole entry): as above
Human INSL5 (insulin-like peptide 5) (ligand), sequence (Q9Y5Q6 23-135): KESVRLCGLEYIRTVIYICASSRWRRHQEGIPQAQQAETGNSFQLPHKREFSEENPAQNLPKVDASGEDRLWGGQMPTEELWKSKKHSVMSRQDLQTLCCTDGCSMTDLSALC

Row | Compound | pEC50, inhibition of forskolin-stimulated cAMP production in hRXFP4-CHO cells [1] | pEC50 (human RXFP4 (hRXFP4) [2]) | pEC50 (mouse RXFP4 (mRXFP4)) | pKi (human RXFP4 (hRXFP4) [3])
1 | R3/I5 (ligand) | 7.52 |  |  | 
2 | O=C1CCCC2=C1[C@H](c1ccc(O)cc1)n1nc(-c3ccccc3Cl)nc1N2 [JK1] |  | 4.76 ± 0.04 -log M | 4.60 ± 0.07 -log M | 4.48 ± 0.09 -log M
3 | Human INSL5 (insulin-like peptide 5) (ligand) | 8.12 |  |  | 
